Earlier results in patent US7834031B2, “Radiolabeled glycine transporter inhibitors” (Merck Sharp & Dohme Corp., priority 2005, dated 2010).

How the values were obtained:
[1] = tested on: symptoms of schizophrenia; conditions: high doses, oral, add-on to standard neuroleptic therapy
[2] = tested on: symptoms of schizophrenia; conditions: schizophrenia patients poorly responsive to antipsychotic drugs
[3] = tested on: pre-pulse inhibition; conditions: mice; measure of sensory gating
[4] = tested on: NMDA receptor activity; conditions: rat

Q: Which “symptoms of schizophrenia patients” value [1] does the source give for `NCC(=O)O` [glycine] here?
A: Its value is “improvement of the symptoms”.

Q: Which “effect on positive, negative and cognitive symptoms” value [2] does the source give for `CNCC(=O)O` [sarcosine] here?
A: Its value is “beneficial effect”.

Q: With `CN(CCC(Oc1ccc(-c2ccccc2)cc1)c1ccc(F)cc1)CC(=O)O` (stereo not shown) [NFPS, (N-[3-(4′-fluorophenyl)-3-(4′-phenylphenoxy)propyl])sarcosine] as the molecule, how does the pre-pulse inhibition [3] read?
A: Its pre-pulse inhibition is “enhance pre-pulse inhibition”.

Q: What about the “NMDA receptor activity and NMDA receptor-dependent long-term potentiation” value [4] of the same molecule?
A: The value was “potentiates NMDA receptor activity and NMDA receptor-dependent long-term potentiation”.
